Measured values reported in patent US8889732B2, “Fused heterocyclic compounds and thrombopoietin receptor activators” (Nissan Chemical Industries, Ltd., priority 2009, dated 2014).

biological target: T1, human thrombopoietin receptor (c-mpl) (Homo sapiens, UniProt P40238); test: Stimulation of proliferation of thrombopoietin-dependent cell line UT7/EPO-mpl (WST-8); format: cell-based; conditions: concentration yielding growth rate corresponding to 50% of growth of UT-7/EPO-mpl in the presence of 10 ng/mL TPO; 4 days incubation, WST-8
T1 construct: expressed in transfected cells
T1 sequence (P40238 26-635): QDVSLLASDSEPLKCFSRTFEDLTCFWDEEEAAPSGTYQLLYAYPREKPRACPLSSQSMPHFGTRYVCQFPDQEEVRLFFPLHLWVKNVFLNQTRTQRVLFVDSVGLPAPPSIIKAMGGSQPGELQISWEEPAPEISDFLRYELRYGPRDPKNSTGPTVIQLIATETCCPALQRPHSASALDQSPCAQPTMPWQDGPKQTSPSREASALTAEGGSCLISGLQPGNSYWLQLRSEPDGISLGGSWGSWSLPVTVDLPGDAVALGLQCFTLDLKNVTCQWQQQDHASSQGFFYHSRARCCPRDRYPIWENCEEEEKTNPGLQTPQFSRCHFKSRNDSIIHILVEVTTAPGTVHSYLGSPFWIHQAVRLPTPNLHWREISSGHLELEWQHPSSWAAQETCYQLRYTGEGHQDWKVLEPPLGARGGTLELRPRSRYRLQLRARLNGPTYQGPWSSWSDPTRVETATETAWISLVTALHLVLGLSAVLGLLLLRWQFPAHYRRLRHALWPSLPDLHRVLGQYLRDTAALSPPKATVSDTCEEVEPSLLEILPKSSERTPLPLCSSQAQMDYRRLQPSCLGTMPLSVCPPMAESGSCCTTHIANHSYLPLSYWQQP
Method: The responses of thrombopoietin receptor to the compounds of Synthetic Examples of the present invention were assayed using a human leukemic cell line, UT7/EPO-mpl.
UT7/EPO-mpl is a stable transformed cell line obtained by introducing into human leukemic cell line UT7/EPO a vector that induces expression of human thrombopoietin receptor (c-mpl) under control of cytomegalovirus immediate-early promoter by the method of Takatoku et al. (J. Biol. Chem., 272:7259-7263 (1997)). […] These two cell lines were subcultured in IMDM (Invitrogen) containing 10% fetal bovine serum (Thermo Electron or BioWest) using a CO2 incubator (5% CO2, 37° C.).
The subcultured cells described above were washed twice with PBS and suspended in IMDM containing 10% fetal bovine serum at a cell density of 6×10^4 cells/ml. The cell suspension was transferred to a 96-well tissue culture plate (CORNING) in 100-μl aliquots. Then either thrombopoietin (Pepro Tech EC) or the compound of Synthetic Examples dissolved in dimethyl sulfoxide were diluted 83-fold with IMDM containing 10% fetal bovine serum and added to the aforementioned cell suspension in 20-μl aliquots. The cell suspension was incubated in a CO2 incubator (5% CO2, 37° C.) for 4 days. Cell proliferation was assayed using WST-8 reagent (Kishida Chemical Co., Ltd.) according to instructions by the manufacturer. A 10-μl aliquot of 5 mM WST-8 reagent solution was added to each well of the tissue culture plate, and the plate was incubated at 37° C. for 4 hours. The formazan pigment generated was detected by measuring the absorbance at 450 nm with a 96-well microplate reader (Nihon Molecular Devices, Spectramax 190).

SMILES	EC50 [nM]
CCN(CC)C(=O)c1ccc(C(=O)N/N=C(\C)c2nn(C)c(-c3ccc4c(c3)CCC4)c2O)s1 [compound 3]	70.3
COC(=O)c1ccc(C(=O)N/N=C(\C)c2nn(C)c(-c3ccc4c(c3)CCC4)c2O)s1 [compound 6]	18.9
COC(=O)c1ccc(C(=O)N/N=C(\C)c2nn(C)c(-c3ccc4c(c3)CCC4)c2O)cc1 [compound 7]	43
COC(=O)C1CCN(C(=S)N/N=C(\C)c2nn(C)c(-c3ccc4c(c3)CCC4)c2O)CC1 [compound 8]	99.4
C/C(=N\NC(=S)N1CCC(C(=O)O)CC1)c1nn(C)c(-c2ccc3c(c2)CCC3)c1O [compound 9]	76.5
C/C(=N\NC(=O)c1ccc(C(=O)O)s1)c1nn(C)c(-c2ccc3c(c2)CCC3)c1O [compound 10]	45.5
C/C(=N\NC(=O)c1ccc(C(=O)O)cc1)c1nn(C)c(-c2ccc3c(c2)CCC3)c1O [compound 11]	57.6
C/C(=N\NC(=S)Nc1ccc(C(=O)O)cc1)c1nn(C)c(-c2ccc3c(c2)CCC3)c1O [compound 13]	59.2
C/C(=N\NC(=S)Nc1cccc(C(=O)O)c1)c1nn(C)c(-c2ccc3c(c2)CCC3)c1O [compound 14]	22.7
C/C(=N\NC(=S)Nc1cccc(C(=O)O)c1)c1csc(-c2ccc3c(c2)CCCC3)c1O [compound 17]	49.4
C/C(=N\NC(=O)c1ccc(C(=O)NCCc2ccncc2)s1)c1csc(-c2ccc3c(c2)CCO3)c1O [compound 19]	30
C/C(=N\NC(=O)c1ccc(C(=O)N2CCCC2)s1)c1csc(-c2ccc3c(c2)CCO3)c1O [compound 21]	99.7
COC(=O)c1ccc(C(=O)N/N=C(\C)c2csc(-c3ccc4c(c3)CCC4)c2O)cc1[N+](=O)[O-] [compound 29]	12.9
COC(=O)c1ccc(C(=O)N/N=C(\C)c2csc(-c3ccc4c(c3)CCC4)c2O)s1 [compound 30]	18.8
COC(=O)c1ccc(C(=O)N/N=C(\C)c2csc(-c3ccc4c(c3)CCC4)c2O)cc1 [compound 31]	52.9
COC(=O)c1ccc(C(=O)N/N=C(\C)c2csc(-c3ccc4c(c3)CCCC4)c2O)cc1 [compound 37]	40.1
C/C(=N\NC(=S)Nc1ccc(C(=O)O)c(Cl)c1)c1csc(-c2ccc3c(c2)CCO3)c1O [compound 39]	43
COC(=O)C1CCN(C(=S)N/N=C(\C)c2csc(-c3ccc4c(c3)CCC4)c2O)CC1 [compound 40]	52.4
COC(=O)C1CCN(C(=S)N/N=C(\C)c2csc(-c3ccc4c(c3)CCCC4)c2O)CC1 [compound 42]	48.8
C/C(=N\NC(=O)c1ccc(C(=O)O)cc1)c1csc(-c2ccc3c(c2)CCO3)c1O [compound 46]	94.7
C/C(=N\NC(=O)c1ccc(C(=O)O)c([N+](=O)[O-])c1)c1csc(-c2ccc3c(c2)CCO3)c1O [compound 47]	55.6
C/C(=N\NC(=S)Nc1ccc(C(=O)O)cc1)c1csc(-c2ccc3c(c2)CCO3)c1O [compound 56]	57.3
C/C(=N\NC(=S)Nc1cccc(C(=O)O)c1)c1csc(-c2ccc3c(c2)CCC3)c1O [compound 59]	53.1

Continued by falling EC50, values first:

EC50 [nM]	SMILES
12.8	C/C(=N\NC(=S)Nc1ccc(C(=O)O)c(Cl)c1)c1nn(C)c(-c2ccc3c(c2)CCC3)c1O [compound 15]
11.7	COC(=O)c1ccc(C(=O)N/N=C(\C)c2nn(C)c(-c3ccc4c(c3)CCC4)c2O)cc1[N+](=O)[O-] [compound 5]
11.1	C/C(=N\NC(=O)c1ccc(C(=O)N2CCCC2)s1)c1nn(C)c(-c2ccc3c(c2)CCC3)c1O [compound 4]
9.46	COC(=O)c1ccc(C(=O)N/N=C(\C)c2csc(-c3ccc4c(c3)CCCC4)c2O)s1 [compound 36]
6.79	C/C(=N\NC(=S)Nc1ccc(C(=O)O)c(Cl)c1)c1csc(-c2ccc3c(c2)CCC3)c1O [compound 41]
6.44	CCN(CC)C(=O)c1ccc(C(=O)N/N=C(\C)c2csc(-c3ccc4c(c3)CCC4)c2O)s1 [compound 27]
5.84	C/C(=N\NC(=O)c1ccc(C(=O)N2CCCC2)s1)c1csc(-c2ccc3c(c2)CCC3)c1O [compound 28]
5.8	C/C(=N\NC(=S)Nc1ccc(C(=O)O)cc1)c1csc(-c2ccc3c(c2)CCCC3)c1O [compound 60]
5.76	C/C(=N\NC(=S)Nc1ccc(C(=O)O)cc1)c1csc(-c2ccc3c(c2)CCC3)c1O [compound 58]
5.4	C/C(=N\NC(=O)c1ccc(C(=O)NCc2ccncc2)s1)c1csc(-c2ccc3c(c2)CCO3)c1O [compound 18]
4.84	CCN(CC)C(=O)c1ccc(C(=O)N/N=C(\C)c2csc(-c3ccc4c(c3)CCCC4)c2O)s1 [compound 33]
4.8	C/C(=N\NC(=S)Nc1ccc(C(=O)O)c(Cl)c1)c1csc(-c2ccc3c(c2)CCCC3)c1O [compound 43]
4.08	C/C(=N\NC(=S)Nc1cccc(-c2nnn[nH]2)c1)c1csc(-c2ccc3c(c2)CCCC3)c1O [compound 61]
4.08	C/C(=N\NC(=S)Nc1ccc(-c2nnn[nH]2)cc1)c1csc(-c2ccc3c(c2)CCCC3)c1O [compound 62]
4.06	C/C(=N\NC(=S)N1CCC(C(=O)O)CC1)c1csc(-c2ccc3c(c2)CCC3)c1O [compound 48]
3.71	C/C(=N\NC(=S)N1CCC(C(=O)O)CC1)c1csc(-c2ccc3c(c2)CCCC3)c1O [compound 52]
3.4	C/C(=N\NC(=O)c1ccc(C(=O)NCCc2ccncc2)s1)c1nn(C)c(-c2ccc3c(c2)CCC3)c1O [compound 2]
3.28	C/C(=N\NC(=O)c1ccc(C(=O)O)s1)c1csc(-c2ccc3c(c2)CCC3)c1O [compound 49]
2.99	C/C(=N\NC(=O)c1ccc(C(=O)O)cc1)c1csc(-c2ccc3c(c2)CCCC3)c1O [compound 54]
2.43	C/C(=N\NC(=O)c1ccc(C(=O)N2CCCC2)s1)c1csc(-c2ccc3c(c2)CCCC3)c1O [compound 34]
1.76	C/C(=N\NC(=O)c1ccc(C(=O)O)cc1)c1csc(-c2ccc3c(c2)CCC3)c1O [compound 50]
1.73	C/C(=N\NC(=O)c1ccc(C(=O)O)c([N+](=O)[O-])c1)c1nn(C)c(-c2ccc3c(c2)CCC3)c1O [compound 12]
1.55	C/C(=N\NC(=O)c1ccc(C(=O)NCc2ccncc2)s1)c1nn(C)c(-c2ccc3c(c2)CCC3)c1O [compound 1]
1.25	C/C(=N\NC(=O)c1ccc(C(=O)O)s1)c1csc(-c2ccc3c(c2)CCCC3)c1O [compound 53]
0.867	C/C(=N\NC(=O)c1ccc(C(=O)NCCc2ccncc2)s1)c1csc(-c2ccc3c(c2)CCC3)c1O [compound 26]
0.523	C/C(=N\NC(=O)c1ccc(C(=O)NCc2ccncc2)s1)c1csc(-c2ccc3c(c2)CCC3)c1O [compound 25]
0.496	C/C(=N\NC(=O)c1ccc(C(=O)NCCc2ccncc2)s1)c1csc(-c2ccc3c(c2)CCCC3)c1O [compound 16]
0.452	C/C(=N\NC(=O)c1ccc(C(=O)NCc2ccncc2)s1)c1csc(-c2ccc3c(c2)CCCC3)c1O [compound 32]
0.451	C/C(=N\NC(=O)c1ccc(C(=O)O)c([N+](=O)[O-])c1)c1csc(-c2ccc3c(c2)CCC3)c1O [compound 51]
0.396	C/C(=N\NC(=O)c1ccc(C(=O)O)c([N+](=O)[O-])c1)c1csc(-c2ccc3c(c2)CCCC3)c1O [compound 55]
